In the assay the test system is HCV replication. The experiment in a line: HCV replicon assay (luciferase) in ET (Huh-lucubineo-ET) cell line. The assay is classed as cell-based. The following applies: Hepatitis C virus, tested at 5 μM; ET replicon cells; luciferase activity measured 48-72 hours later; relative to no compound control. The protocol:
A cell line, ET (Huh-lucubineo-ET) was used for screening of compounds of the present invention for inhibiting HCV replication. The ET cell line was stably transfected with RNA transcripts harboring a I389luc-ubi-neo/NS3-3′/ET; replicon with firefly luciferase-ubiquitin-neomycin phosphotransferase fusion protein and EMCV-IRES driven NS3-5B polyprotein containing the cell culture adaptive mutations (E1202G; T12801; K1846T) (Krieger at al, 2001 and unpublished). The ET cells were grown in DMEM (Dulbeco's Modified Eagle's Medium), supplemented with 10% fetal calf serum, 2 mM Glutamine, Penicillin (100 IU/mL)/Streptomycin (100 μg/mL), 1× nonessential amino acids, and 250 μg/mL G418 (“Geneticin”). They were all available through Life Technologies (Bethesda, Md.). The cells were plated at 0.5-1.0×10^4 cells/well in the 96 well plates and incubated for 24 hrs before adding testing compounds. Then the compounds were added to the cells to achieve a final concentration of 0.1 nM to 50 μM and a final DMSO concentration of 0.5%. Luciferase activity were measured 48-72 hours later by adding a lysis buffer and the substrate (Catalog number Glo-lysis buffer E2661 and Bright-Glo luciferase system E2620 Promega, Madison, Wis.). Cells should not be too confluent during the assay. Percent inhibition of replication was plotted relative to no compound control. Under the same condition, cytotoxicity of the compounds was determined using cell proliferation reagent, WST-1 (Roche, Germany). The compounds showing antiviral activities, but no significant cytotoxicities were chosen to determine EC50 and TC50. For these determinations, a 10 point 2-fold serial dilution for each compound was used, which spans a concentration range of 1000 fold. EC50 and similarly TC50 values were calculated by fitting % inhibition at each concentration to the following equation:
% inhibition=100%/[(IC50/[I])^b+1]
where b is Hill's coefficient.
In some preferred embodiments compounds of Formula I will have a % inhibition of at least 20% when tested at 5 μM. In other embodiments the compounds of Formula I will have a % inhibition of at least 50% when tested at 5 μM.
(A replicon is a self-replicating genome or part of one, used to study replication in cells.)
One may read the inhibition as the relative decrease from the control value, in per cent. Read a low inhibition as a response near the control. Regarding `O=C(Nc1nc(-c2ccccc2)cs1)[C@@H]1CSC(c2ccncc2)N1C(=O)OCc1ccccc1` (stereo partly drawn) [Compound 7026, 4-(4-Phenyl-thiazol-2-ylcarbamoyl)-2-pyridin-4-yl-thiazolidine-3-carboxylic acid benzyl ester], the inhibition at 5 µM was 89.1%. The figure for `O=C(Nc1nc(-c2ccccc2)cs1)[C@@H]1CSC2(CCOCC2)N1C(=O)OCc1ccccc1` [Compound 7094, 3-(4-Phenyl-thiazol-2-ylcarbamoyl)-8-oxa-1-thia-4-aza-spiro[4.5]decane-4-carboxylic acid benzyl ester] is 88%. The figure for `O=C(Nc1ccccc1)[C@@H]1CSC(c2cccnc2)N1C(=O)OCc1ccccc1` (stereo partly drawn) [Compound 7018, 4-Phenylcarbamoyl-2-pyridin-3-yl-thiazolidine-3-carboxylic acid benzyl ester] is 47.6%; for `O=C(NC1CC1)c1ccc(-c2csc(NC(=O)[C@@H]3COC(c4ccccc4)N3C(=O)OCc3ccccc3)n2)cc1` (stereo partly drawn) [Compound 7046, (S)-4-[4-(4-Cyclopropylcarbamoyl-phenyl)-thiazol-2-ylcarbamoyl]-2-phenyl-oxazolidine-3-carboxylic acid benzyl ester] it is 99.1%. With `CC1SC[C@@H](C(=O)Nc2nc(-c3ccc(C(=O)NC4CC4)cc3)cs2)N1C(=O)OCc1ccccc1` (stereo partly drawn) [Compound 7024, (R)-4-[4-(4-Cyclopropylcarbamoyl-phenyl)-thiazol-2-ylcarbamoyl]-2-methyl-thiazolidine-3-carboxylic acid benzyl ester] the figure was 99.7%.

For the compound `O=C(NCc1ccc(NC(=O)[C@@H]2CSC(c3ccncc3)N2C(=O)OCc2ccccc2)cc1)c1ccccc1` (stereo in doubt) [Compound 7077, 4-[4-(Benzoylamino-methyl)-phenylcarbamoyl]-2-pyridin-4-yl-thiazolidine-3-carboxylic acid benzyl ester], at 5 µM the inhibition was 2.1%. The figure for `O=C(NC1CC1)c1ccc(-c2csc(NC(=O)[C@@H]3CSC(c4ccccc4F)N3C(=O)OCc3ccccc3)n2)cc1` (mixture of isomers) [Compound 7037, (R)-4-[4-(4-Cyclopropylcarbamoyl-phenyl)-thiazol-2-ylcarbamoyl]-2-(2-fluoro-phenyl)-thiazolidine-3-carboxylic acid benzyl ester] is 100%.

On to `O=C(Nc1ccc(CNS(=O)(=O)c2ccccc2)cc1)[C@@H]1CSC(c2ccncc2)N1C(=O)OCc1ccccc1` (stereo partly drawn) [Compound 7111, 4-[4-(Benzenesulfonylamino-methyl)-phenylcarbamoyl]-2-pyridin-4-yl-thiazolidine-3-carboxylic acid benzyl ester], for which the inhibition at 5 µM came to 43%. `CC(C)(C)OC(=O)N1C(c2cccnc2)SC[C@H]1C(=O)Nc1nc(-c2ccc(C(=O)NC3CC3)cc2)cs1` (single isomer, unassigned) [Compound 7032, 4-[4-(4-Cyclopropylcarbamoyl-phenyl)-thiazol-2-ylcarbamoyl]-2-pyridin-3-yl-thiazolidine-3-carboxylic acid tert-butyl ester] yielded an inhibition at 5 µM of 99.2%. With `O=C(Nc1cccnc1)c1ccc(-c2csc(NC(=O)[C@@H]3CSC4(CCOCC4)N3C(=O)OCc3ccccc3)n2)cc1` [Compound 7139, 3-{4-[4-(Pyridin-3-ylcarbamoyl)-phenyl]-thiazol-2-ylcarbamoyl}-8-oxa-1-thia-4-aza-spiro-[4.5]decane-4-carboxylic acid benzyl ester] the figure was 100%. For the compound `CN1CCC2(CC1)SC[C@@H](C(=O)Nc1nc(-c3ccc(C(=O)NC4CC4)cc3)cs1)N2C(=O)OCc1ccccc1` [Compound 7114, 3-[4-(4-Cyclopropylcarbamoyl-phenyl)-thiazol-2-ylcarbamoyl]-8-methyl-1-thia-4,8-diaza-spiro[4.5]decane-4-carboxylic acid benzyl ester], the inhibition at 5 µM worked out at 100%. Regarding `Cn1ccnc1C1SC[C@@H](C(=O)Nc2nc(-c3ccc(C(=O)NC4CC4)cc3)cs2)N1C(=O)OCc1ccccc1` (single isomer, unassigned) [Compound 7054, 4-[4-(4-Cyclopropylcarbamoyl-phenyl)-thiazol-2-ylcarbamoyl]-2-(1-methyl-1H-imidazol-2-yl)-thiazolidine-3-carboxylic acid benzyl ester], the inhibition at 5 µM amounted to 94.1%. With `CC(C)(C)OC(=O)N1CCCC(C2SC[C@@H](C(=O)Nc3nc(-c4ccc(C(=O)NC5CC5)cc4)cs3)N2C(=O)OCc2ccccc2)C1` (mixture of isomers) [Compound 7098, 3-{3-Benzyloxycarbonyl-4-[4-(4-cyclopropylcarbamoyl-phenyl)-thiazol-2-ylcarbamoyl]-thiazolidin-2-yl}-piperidine-1-carboxylic acid tert-butyl ester] the figure was 99.9%; with `O=C(Nc1nc(-c2ccccc2)cs1)[C@@H]1CS[C@H](c2cccnc2)N1C(=O)OCc1ccccc1` [Compound 7058, (2R,4R)-4-(4-Phenyl-thiazol-2-ylcarbamoyl)-2-pyridin-3-yl-thiazolidine-3-carboxylic acid benzyl ester], 99.9%. The figure for `O=C(NC1CC1)c1ccc(-c2csc(NC(=O)[C@@H]3CSC(c4cc[n+]([O-])cc4)N3C(=O)OCc3ccccc3)n2)cc1` (stereo partly drawn) [Compound 7050, (R)-4-[4-(4-Cyclopropylcarbamoyl-phenyl)-thiazol-2-ylcarbamoyl]-2-(1-oxy-pyridin-4-yl)-thiazolidine-3-carboxylic acid benzyl ester] is 100%; for `O=C(NC1CC1)c1ccc(-c2csc(NC(=O)[C@@H]3Cc4ccccc4CN3C(=O)OCc3ccccc3)n2)cc1` [Compound 7002, (S)-3-[4-(4-Cyclopropylcarbamoyl-phenyl)-thiazol-2-ylcarbamoyl]-3,4-dihydro-1H-isoquinoline-2-carboxylic acid benzyl ester] it is 97.5%. With `N#Cc1cccc(C2OC[C@@H](C(=O)Nc3nc(-c4ccc(C(=O)NC5CC5)cc4)cs3)N2C(=O)OCc2ccccc2)c1` (stereo in doubt) [Compound 7081, 2-(3-Cyano-phenyl)-4-[4-(4-cyclopropylcarbamoyl-phenyl)-thiazol-2-ylcarbamoyl]-oxazolidine-3-carboxylic acid benzyl ester] the figure was 100%; with `N#Cc1ccc(C2SC[C@@H](C(=O)Nc3nc(-c4ccc(C(=O)NC5CC5)cc4)cs3)N2C(=O)OCc2ccccc2)cc1` (mixture of isomers) [Compound 7017, (R)-2-(4-Cyano-phenyl)-4-[4-(4-cyclopropylcarbamoyl-phenyl)-thiazol-2-ylcarbamoyl]-thiazolidine-3-carboxylic acid benzyl ester], 100%. In turn, `CNC(=O)CCCCC1SC[C@@H](C(=O)Nc2nc(-c3ccc(C(=O)NC4CC4)cc3)cs2)N1C(=O)OCc1ccccc1` (stereo partly drawn) [Compound 7099, 4-[4-(4-Cyclopropylcarbamoyl-phenyl)-thiazol-2-ylcarbamoyl]-2-(4-methylcarbamoyl-butyl)-thiazolidine-3-carboxylic acid benzyl ester] registered an inhibition at 5 µM of 100%. The figure for `O=C(NC1CC1)c1ccc(NC(=O)[C@@H]2CSC(c3ccncc3)N2C(=O)OCc2ccccc2)cc1` (stereo in doubt) [Compound 7066, 4-(4-Cyclopropylcarbamoyl-phenylcarbamoyl)-2-pyridin-4-yl-thiazolidine-3-carboxylic acid benzyl ester] is 6.9%; for `O=C(NC1CC1)c1ccc(-c2csc(NC(=O)[C@@H]3Cc4ccccc4N3C(=O)OCc3ccccc3)n2)cc1` [Compound 7039, (S)-2-[4-(4-Cyclopropylcarbamoyl-phenyl)-thiazol-2-ylcarbamoyl]-2,3-dihydro-indole-1-carboxylic acid benzyl ester] it is 100%. The figure for `Cc1cccc2[nH]c(Cc3ccc(NC(=O)[C@@H]4CSC(c5ccncc5)N4C(=O)OCc4ccccc4)cc3)nc12` (stereo partly drawn) [Compound 7084, 4-[4-(4-Methyl-1H-benzoimidazol-2-ylmethyl)-phenylcarbamoyl]-2-pyridin-4-yl-thiazolidine-3-carboxylic acid benzyl ester] is 14.2%; for `O=C(Nc1nc(-c2ccccc2)cs1)[C@@H]1Cc2ccccc2N1C(=O)OCc1ccccc1` [Compound 7023, (S)-2-(4-Phenyl-thiazol-2-ylcarbamoyl)-2,3-dihydro-indole-1-carboxylic acid benzyl ester] it is 78.5%; for `O=C(NC1CC1)c1ccc(-c2csc(NC(=O)[C@@H]3CSC(CCCCC(=O)N4CCCCC4)N3C(=O)OCc3ccccc3)n2)cc1` (stereo in doubt) [Compound 7102, 4-[4-(4-Cyclopropylcarbamoyl-phenyl)-thiazol-2-ylcarbamoyl]-2-(5-oxo-5-piperidin-1-yl-pentyl)-thiazolidine-3-carboxylic acid benzyl ester] it is 100%.

The record behind these values is patent US20080181866A1, “Amido Anti-viral Compounds” (Genelabs Technologies, Inc., priority 2006, published 2008).
